Measured values as given in US8410173B2, “Inhibition of JAK2 as a treatment of pulmonary arterial hypertension” (YM Biosciences Australia Pty Ltd, priority 2006, dated 2013).
“Also recorded” adds a separate entry of the source. Marks after values point to notes of the source that are not given here.

Columns and labels:
[1] = system: rat monocrotaline model of PAH; settings: cited from earlier work; for efficacy in the rat monocrotaline model of PAH: sildenafil oral, alone or in combination with beraprost
[2] = system: rat monocrotaline model of pulmonary arterial hypertension; assay: rat monocrotaline model of pulmonary arterial hypertension, RV pressures; type: in vivo; settings: for RVEDP Mean / RVS Mean Difference (I − J) vs group 1 (saline control) / RVS Mean Difference (I − J) vs group 2 (monocrotaline, vehicle): day 21
Description: To test the efficacy of JAK2 inhibition as a treatment for PAH, the rat monocrotaline model of pulmonary arterial hypertension was used. Animals with pulmonary arterial hypertension induced by monocrotaline were treated for three weeks with the selective JAK2 inhibitor, AG490, or vehicle. AG490 is a tyrphostin based tyrosine kinase inhibitor selective for JAK2.

[3] = system: plexiform lesions in lungs of monocrotaline treated rats; assay: histological studies (H&E) of lungs, rat monocrotaline model; type: in vivo; settings: AG490 1 mg/kg tid, H&E stains of formalin fixed lungs
Description: A. Normal lung; B. Lung from monocrotaline treated animal. C. Lung from rat given monocrotaline and AG490 1 mg/kg tid. The arrows point to pulmonary arterioles.
Histological studies of the lungs from group 2 and group 5 were performed to determine the effect of selective JAK2 inhibition on the pulmonary vascular lesions associated with PAH.

[4] = group 3, AG490 1 mg/kg/day SID IP
[5] = group 4, AG490 3 mg/kg/day SID IP
[6] = group 5, AG490 1 mg/kg/dose TID IP

O=S(=O)(c1cccc2cnccc12)N1CCCNCC1 [fasudil]
progression of PAH ([1]; rat monocrotaline model): prevented the progression of PAH | pulmonary arterial hypertension, pulmonary vascular lesions, endothelial cell dysfunction, and RV hypertrophy ([1]; rat monocrotaline model): decreased | survival ([1]; rat monocrotaline model): improved survival

N#C/C(=C\c1ccc(O)c(O)c1)C(=O)NCc1ccccc1 [AG490]
reduction of RV systolic pressure vs vehicle treated group ([2]; AG490 1 mg/kg tid, day 21, p=0.023): 24% | RV systolic pressure ([2]; AG490 1 mg/kg tid, monocrotaline treated rats, day 21 (group 5), vehicle 38.44±3.1): 29.23±4.5 mm Hg | RV systolic pressure improvement, in words ([2]; group 3, AG490 1 mg/kg/day): No improvement | RVEDP Mean Difference (I − J) vs group 1 (saline control) [2, 4]: 5.5436 | RVEDP Mean Difference (I − J) vs group 2 (monocrotaline, vehicle) [2, 4]: −.0585 | RVEDP Mean [2, 4]: 4.042 mm Hg | RVS Mean Difference (I − J) vs group 1 (saline control) [2, 4]: 11.468* | RVS Mean Difference (I − J) vs group 2 (monocrotaline, vehicle) [2, 4]: −2.487 | RVEDP Mean Difference (I − J) vs group 1 (saline control) [2, 5]: .6433 | RVEDP Mean Difference (I − J) vs group 2 (monocrotaline, vehicle) [2, 5]: −4.9588 | RVEDP Mean [2, 5]: −.858 mm Hg | RVS Mean Difference (I − J) vs group 1 (saline control) [2, 5]: 6.730 | RVS Mean Difference (I − J) vs group 2 (monocrotaline, vehicle) [2, 5]: −7.225 | RV systolic pressure compared to group 2 (vehicle only), in words ([2]; group 5, AG490 1 mg/kg tid, p=0.023, 1 mg/kg): significantly reduced; also recorded: significant reduction; also recorded: significantly lower | RV End diastolic pressure compared to group 2 (vehicle), in words ([2]; group 5, AG490 1 mg/kg tid, p=0.05): significantly lower | RVEDP Mean Difference (I − J) vs group 1 (saline control) [2, 6]: −.0193 | RVEDP Mean Difference (I − J) vs group 2 (monocrotaline, vehicle) [2, 6]: −5.6214* | RVEDP Mean [2, 6]: −1.521 mm Hg | RVS Mean Difference (I − J) vs group 1 (saline control) [2, 6]: 4.741 | RVS Mean Difference (I − J) vs group 2 (monocrotaline, vehicle) [2, 6]: −9.214* | plexiform lesions associated with pulmonary arterial hypertension [3]: prevented the formation of plexiform lesions; also recorded: decreased

Cc1ccc(NC(=O)c2ccc(CN3CCN(C)CC3)cc2)cc1Nc1nccc(-c2cccnc2)n1 [imantinib]
RV systolic pressure ([1]; rat monocrotaline model): decreased | survival ([1]; rat monocrotaline model): improved survival

CC#CCC(C)[C@H](O)/C=C/[C@@H]1[C@H]2C/C(=C/CCCC(=O)O)C[C@H]2C[C@H]1O (stereo partly shown) [iloprost]
efficacy in the rat monocrotaline model of PAH [1]: showed efficacy

CCCc1nn(C)c2c(=O)[nH]c(-c3cc(S(=O)(=O)N4CCN(C)CC4)ccc3OCC)nc12 [sildenafil]
efficacy in the rat monocrotaline model of PAH [1]: showed efficacy

O=C(C(=O)N1CCn2nc(-c3ccc(F)cc3)c(-c3ccncc3)c2N1)c1ccccc1.O=S(=O)(O)O [FR167653]
progression of PAH ([1]; rat monocrotaline model): decrease the progression of PAH

COc1ccccc1Oc1c(NS(=O)(=O)c2ccc(C(C)(C)C)cc2)nc(-c2ncccn2)nc1OCCO [bosentan]
pulmonary artery thickening ([1]; rat monocrotaline model): decrease pulmonary artery thickening | pulmonary hypertension ([1]; rat monocrotaline model): reduce pulmonary hypertension
